This is an account of results in patent US9447075B2, “Pyridazine derivatives as EAAT2 activators” (The Brigham and Women's Hospital, Inc., priority 2011, dated 2016).

Data set [1] is described as follows: In vivo pharmacokinetic evaluation in male C57Bl/6 mice (LCMS/MS). Further details: species or system mouse. The conditions noted are these: ip, single i.p. 3 mg/kg; for half-life: estimated. As to the method:
Compound 212320 is compliant with Lipinski rules and lacks functionality that would predict overt toxicity or reactivity. This compound has a low molecular weight (293.38), cLogP value (3.28) and polar surface area (PSA) value (37.08 Å2) in the range typical of compounds that can penetrate the blood brain barrier. We conducted in vivo pharmacokinetic evaluation of LDN 212320 in male C57Bl/6 mice. After a single intraperitoneal (i.p.) administration of Compound 212320 (3 mg/kg), the plasma and brain concentrations were determined over an 8 hr period by LCMS/MS (FIG. 8A). […] The plasma and brain half-lives were estimated to be 2.63 and 2.64 hr, respectively. The average brain-to-plasma ratio was approximately 2 at all time points tested.

The test system of data set [2] is GFAP, GS, EAAT1, GAPDH, SOD1, actin, YB-1, RNA polymerase II, synaptophysin, EAAT3, EAAT4, PSD95, AKT, PI3K, IkB-α, ERK2. The data set is described as follows: Total protein and expression of other proteins (global protein synthesis). In kind it is in vivo, mouse. The source says:
Furthermore, the following observations indicate that the effects of Compound 212320 on EAAT2 protein expression were not due to a general increase in protein synthesis. First, the total amount of protein in compound-treated cells and mice was not increased compared with that in vehicle-treated cells and mice. Secondly, we examined the expression of a variety of other proteins in mouse brains: astrocyte-specific proteins including GFAP, glutamine synthetase (GS), and EAAT1 (another astrocytic glutamate transporter subtype), several housekeeping proteins including GAPDH, SOD1, actin, YB-1, RNA polymerase II, several neuronspecific proteins including synaptophysin, EAAT3 (a neuronal glutamate transporter), EAAT4, PSD95, and several signaling proteins including AKT, PI3K, IkB-α and ERK2.

The test system of a further data set is EAAT2. The data set is described as follows: EAAT2 protein levels and glutamate uptake in primary dissociated neuron and astrocyte mixed cultures. In kind it is cell-based. Conditions: seven day-old mixed cultures, serum-free media, 48 hr. The method, then:
We next evaluated Compound 212320 in primary dissociated neuron and astrocyte mixed cultures. Seven day-old cultures were treated with Compound 212320 in serum-free media for 48 hr. As shown in FIG. 7A-B, Compound 212320 increased EAAT2 protein levels and glutamate uptake function.

In another data set the test system is EAAT2 mRNA. The data set is described as follows: EAAT2 mRNA in brain by quantitative real-time RT-PCR after i.p. administration. In kind it is in vivo, mouse. Conditions: FIG. 8D. The method, then: We next examined EAAT2 protein levels and glutamate uptake activities in brain following i.p. administration of Compound 212320 in C57BL/6 mice. Plasma membrane vesicles were prepared from mouse forebrains to measure functional EAAT2 protein. After a single i.p. dose of Compound 212320 at 40 mg/kg, EAAT2 protein levels and associated glutamate uptake increased to ˜1.5-2-fold at 2 hr and to ˜2-3-fold from 8 hr to 24 hr post-injection (FIG. 8B). Even at 72 hr, a ˜1.5 fold increase in EAAT2 protein levels could still be detected (data not shown). In addition, Compound 212320-induced EAAT2 protein levels and glutamate uptake were both dose-dependent (FIG. 8C). This induction was not due to transcriptional activation because EAAT2 mRNA was not increased as measured by quantitative real-time RT-PCR (FIG. 8D). We compared ceftriaxone (200 mg/kg), which increases EAAT2 expression through transcriptional activation, with Compound 212320 (40 mg/kg) that activates EAAT2 translation.
Background: Real-time PCR tracks product formation cycle by cycle.

The subject of data set [3] is male FVB mice, pilocarpine-induced SE. The data set is described as follows: Epilepsy model (pilocarpine-induced status epilepticus mouse model). In kind it is in vivo. The method, then: Eight- to ten-week-old male FVB mice (22-32 g) received the 1st and 2nd injections of Compound 212320 (at 40 mg/kg in the formulation described above) at 20 and 3 hr prior to induction of seizure with pilocarpine (290 mg/kg, i.p., Sigma). To reduce peripheral cholinergic effects without interfering with the development of SE and chronic seizures, mice received (−) scopolamine methyl nitrate (1.5 mg/kg, Sigma, St. Louis, Mo.) 30 min prior to pilocarpine injection. Control animals were injected with scopolamine followed by saline, instead of pilocarpine. Mice were then observed for 2 hr to record acute seizure severity and latency period. The Racine scale (see Racine, R. J. Modification of seizure activity by electrical stimulation. II. Motor seizure. Electroencephalogr Clin Neurophysiol 32, 281-294 (1972)) was used to rate seizure severity as previously described in Kong, Q., et al. Increased glial glutamate transporter EAAT2 expression reduces epileptogenic processes following pilocarpine-induced status epilepticus. Neurobiol Dis (2012)).
Mice that reached SE and maintained tonic limbic extension for at least 60 min were kept and treated with compound daily for chronic seizure and pathological studies. The SE mice were fed with food soaked in a high sucrose (10%) saline solution to help recovery in the first 3 days after SE. Vehicle-treated SE mice and compound-treated SE littermates were carefully matched based on the body weight, seizure latency, seizure severity, and post-SE sickness.
Chronic seizure activities were recorded by webcam (Logitech, Fremont, Calif.) and reviewed using Windows Live Movie Maker. Daylight periods (9 AM-5 PM) were selected for observations because previous literature indicates a higher frequency of spontaneous recurrent seizures during the day (see Kong, Q., et al. Increased glial glutamate transporter EAAT2 expression reduces epileptogenic processes following pilocarpine-induced status epilepticus. Neurobiol Dis (2012); and Shapiro, L. A., Figueroa-Aragon, S. & Ribak, C. E. Newly generated granule cells show rapid neuroplastic changes in the adult rat dentate gyrus during the first five days following pilocarpine-induced seizures. Eur J Neurosci 26, 583-592 (2007)). At 8 weeks post-SE, brain tissue was harvested from SE mice for cresyl violet staining
Referring to FIG. 3, Compound 212320 reduced mortality rate, spontaneous recurrent seizure and neuronal death following pilocarpine-induced SE. Adult male FVB mice received Compound 212320 (i.p., 40 mg/kg), 3-hr later, were induced seizures with pilocarpine and were then observed for 2 hr to record acute seizure severity and latency period. The Racine scale was used to rate the seizure severity (described above). Mice that reached SE were treated with compound daily and at 4-week post-SE, were recorded chronic seizures for 2 weeks. A total of 15 independent experiments were performed, with a total of 153 vehicle-treated mice and 152 compound 7-4-treated mice. […] FIGS. 3(D-F) show spontaneous recurrent seizure. […] FIGS. 3(G-H) show hippocampal damage.

Structures are written as SMILES. Read-outs that look alike come from different tables or passages of the source.

A word on the half-life: it is the time needed for the level to fall by half in the phase considered. Broadly, the Cmax is the maximum level reached in the sampled fluid or tissue.

With `Cc1ccccc1CSc1ccc(-c2ccccn2)nn1` [Compound 7-4], the Kp in data set [1] (male, C57Bl/6, mouse, brain, all time points tested, read-out: average brain-to-plasma ratio) was around 2. In addition, the half-life is 2.64 h in data set [1] (male, C57Bl/6, mouse, brain, read-out: Brain half-life (converted)) and 2.63 h in data set [1] (male, C57Bl/6, mouse, plasma, read-out: Plasma half-life (converted)). This compound showed a Cmax in data set [1] (mouse, in vivo, male C57Bl/6 mice) of 42.1 ± 3.6 ng/mL. In addition, the “Induction of other proteins in mouse brains” value in data set [2] (FIG. 8F) is “None of the above proteins were induced”. Moreover, the “Total amount of protein vs vehicle” value in data set [2] (compound-treated cells and mice) is “not increased”. Moreover, in the data set on EAAT2, the EAAT2 protein levels entry was “increased”. In addition, in the data set on EAAT2, the Glutamate uptake function entry is “increased”. Also, in the data set with EAAT2 mRNA, the “EAAT2 mRNA” value is recorded as “not increased”. For the same compound, in data set [3] (8 weeks post-SE), the “Hippocampal damage (hilar neuronal loss, cresyl violet)” value is reported as “significantly attenuated”. Further, in data set [3] (daily treatment, recorded from 4-week post-SE for 2 weeks), the “Chronic seizure frequency (stage V spontaneous recurrent seizures)” value is “significantly reduced”. Moreover, the “Mortality rate vs vehicle” value in data set [3] (day 7 post-SE) is on record as “significantly decreased”; in data set [3] (day 60 post-SE), “significantly decreased”; in data set [3] (on the day that SE was induced) it was “no obvious difference”. Also, the “Latency to indicated seizure stage vs vehicle” value in data set [3] (i.p., 40 mg/kg) is listed as “not significantly different”. Also, in data set [3] (i.p., 40 mg/kg, within 2-hr after pilocarpine), the “Acute seizure severity (percentage of mice reaching each seizure stage) vs vehicle” value is “not significantly different”.
